Measured values: US20200079793A1, “COMPOUNDS AND METHODS FOR MODULATING ADENOSINE A2B RECEPTOR AND ADENOSINE A2A RECEPTOR” (CORVUS PHARMACEUTICALS, INC., priority 2018, published 2020)

What was measured:
Adenosine A2B Receptor = biological target: T1, Adenosine A2B Receptor (Homo sapiens, UniProt P29275); assay: Activity assay of adenosine receptor modulators, Adenosine A2B Receptor (Table 1); assay type: biochemical; settings: cAMP; read-out: A2BR cAMP IC50
T1 sequence (P29275 1-332): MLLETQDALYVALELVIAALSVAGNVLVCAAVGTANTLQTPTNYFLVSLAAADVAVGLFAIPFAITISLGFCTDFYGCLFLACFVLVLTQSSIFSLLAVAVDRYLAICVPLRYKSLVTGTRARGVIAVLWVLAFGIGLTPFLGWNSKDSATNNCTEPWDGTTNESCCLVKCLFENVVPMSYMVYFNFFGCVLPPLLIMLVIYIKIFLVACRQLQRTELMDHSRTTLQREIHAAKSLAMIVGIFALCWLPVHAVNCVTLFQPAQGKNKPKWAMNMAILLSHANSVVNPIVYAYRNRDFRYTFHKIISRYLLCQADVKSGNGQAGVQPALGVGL
Procedure: (§1) Compounds (e.g., adenosine receptor modulators) were tested for its biological activity. The assay results in Table 1 indicate (+ means >1 μM; ++ means 100 nM to 1 μM; +++ means <100 nM).

Adenosine A2A Receptor = Adenosine A2A Receptor (Homo sapiens, UniProt P29274); assay: Activity assay of adenosine receptor modulators, Adenosine A2A Receptor (Table 1); assay type: biochemical; settings: cAMP; read-out: A2AR cAMP IC50
Procedure: as §1

A1R = biological target: T2, A1R (Homo sapiens, UniProt P30542); assay: Activity assay of adenosine receptor modulators, A1R cAMP (Table 1); assay type: cell-based
T2 sequence (P30542 1-326): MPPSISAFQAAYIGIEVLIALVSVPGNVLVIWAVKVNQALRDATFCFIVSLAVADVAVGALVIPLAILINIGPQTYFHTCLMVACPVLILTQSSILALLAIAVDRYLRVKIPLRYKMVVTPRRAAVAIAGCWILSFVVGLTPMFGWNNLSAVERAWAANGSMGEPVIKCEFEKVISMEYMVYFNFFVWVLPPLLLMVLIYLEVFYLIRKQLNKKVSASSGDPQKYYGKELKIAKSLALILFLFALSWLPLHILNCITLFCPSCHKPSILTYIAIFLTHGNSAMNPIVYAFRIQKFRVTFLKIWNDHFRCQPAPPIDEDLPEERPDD
Procedure: as §1

A3R = biological target: T3, A3R (Homo sapiens, UniProt P0DMS8); assay: Activity assay of adenosine receptor modulators, A3R cAMP (Table 1); assay type: cell-based
T3 sequence (P0DMS8 1-318): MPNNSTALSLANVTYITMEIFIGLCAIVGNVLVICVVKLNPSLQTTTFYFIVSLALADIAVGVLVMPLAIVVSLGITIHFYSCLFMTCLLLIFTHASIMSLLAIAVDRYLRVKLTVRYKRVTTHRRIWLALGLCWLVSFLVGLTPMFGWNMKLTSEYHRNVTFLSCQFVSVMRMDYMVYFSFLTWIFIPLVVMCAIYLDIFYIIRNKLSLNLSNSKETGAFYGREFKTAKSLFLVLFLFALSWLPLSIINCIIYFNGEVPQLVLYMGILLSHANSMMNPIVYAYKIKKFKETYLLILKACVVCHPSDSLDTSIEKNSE
Procedure: as §1

Chain of Adenosine A2A Receptor (P29274 whole entry): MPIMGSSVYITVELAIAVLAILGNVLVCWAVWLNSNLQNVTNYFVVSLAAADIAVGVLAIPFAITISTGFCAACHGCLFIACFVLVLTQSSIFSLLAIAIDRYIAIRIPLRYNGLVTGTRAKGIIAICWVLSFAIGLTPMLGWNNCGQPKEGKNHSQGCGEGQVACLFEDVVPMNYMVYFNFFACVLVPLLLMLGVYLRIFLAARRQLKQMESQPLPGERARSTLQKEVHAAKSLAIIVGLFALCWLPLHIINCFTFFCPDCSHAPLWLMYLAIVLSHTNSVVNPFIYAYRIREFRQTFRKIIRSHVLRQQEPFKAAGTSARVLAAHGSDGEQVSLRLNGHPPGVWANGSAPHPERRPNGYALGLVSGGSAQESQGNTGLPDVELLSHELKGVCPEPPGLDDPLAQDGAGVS

Structure (SMILES): Cc1nc2nc(N[C@@H](C)c3cccnc3)nc(C(=O)N3CC(NC(=O)C4CCOCC4)C3)c2s1 [Example 82, N-[1-[2-Methyl-5-[[(S)-1-(3-pyridyl)ethyl]amino]thiazolo[4,5-d]pyrimidine-7-carbonyl]azetidin-3-yl]tetrahydropyran-4-carboxamide]
- IC50 (Adenosine A2B Receptor): 100 to 1000 nM
- IC50 (Adenosine A2A Receptor): < 100 nM
- IC50 (A1R): > 1000 nM
- IC50 (A3R): > 1000 nM
